Legend:
HCT-116 = assay: Tested for antiproliferative activity against HCT116 colorectal human carcinoma cell using WST-1 assay; format: functional, cell-based
[1] = Tested for inhibitory concentration required to inhibit 50% of histone deacetylase (HDAC) purified from human T cell leukemia Jurkat cell
[2] = Tested for inhibitory concentration required to inhibit 50% of histone deacetylase (HDAC) from human T cell leukemia Jurkat cell; format: cell-based

| Structure (SMILES) | IC50 (HCT-116) [µM] | IC50 [1] [µM] | IC50 [2] [µM] |
| --- | --- | --- | --- |
| O=C(NO)c1ccc(CNC(=O)c2ccc(-c3ccccc3)cc2)cc1 | 3.2 | 0.24 | – |
| O=C(NCC1CCC(C(=O)NO)CC1)c1ccc(-c2ccccc2)cc1 (stereo not drawn) | 4.7 | 0.31 | – |
| O=C(NO)c1ccc(CNC(=O)c2ccc3ccccc3c2)cc1 | 0.7 | 0.044 | – |
| O=C(NO)C1CCC(CNS(=O)(=O)c2ccccc2)CC1 (stereo not drawn) | 77.9 | – | – |
| O=C(NCc1ccc(C(=O)NO)cc1)NC12CC3CC(CC(C3)C1)C2 | 112 | – | – |
| O=C(NO)c1ccc(CNC(=O)c2cccc3ccccc23)cc1 | 9.7 | 0.83 | – |
| O=C(NCC1CCC(C(=O)NO)CC1)NC12CC3CC(CC(C3)C1)C2 (stereo not drawn) | 20.9 | – | – |
| Nc1ccccc1NC(=O)c1ccc(CNC(=O)OCc2cccnc2)cc1 [ENTINOSTAT] | 5.4 | – | – |
| CC(/C=C/C(=O)NO)=C\[C@@H](C)C(=O)c1ccc(N(C)C)cc1 [TRICHOSTATIN] | – | – | 0.0033 |

— ChEMBL document CHEMBL1135106 (Bioorg Med Chem Lett, 2002)
